Assay results taken from patent US20240082416A1, “AMATOXIN ANALOGS AND USES THEREOF” (THE UNIVERSITY OF BRITISH COLUMBIA, priority 2020, published 2024).
Values joined by “and” are separate entries in the source; they are usually repeats but may differ in a detail not shown here. Identical values can stand only once. Starred links: 1 amine or outer side, 2 acyl side, 3 side chain; linkers in the order of their positions; H or OH if unused. Positions of bridges follow the written chain, without caps; N, C: chain ends. Non-standard residues stand in square brackets, D forms with d. Residues, ends and D or L forms follow the SMILES beside them. Trp(2-yl) = O=C([C@H](Cc1c([*:3])[nH]c2ccccc12)N[*:1])[*:2]; X2 = [N-]=[N+]=N[C@@H]1C[C@@H](C(=O)[*:2])N([*:1])C1; Ile(4R-OH,5-OH) = C[C@H]([C@H](N)C(=O)O)[C@@H](O)CO

Assays:
[1] = molecular target: eukaryotic RNA polymerase II (Pol II) (Homo sapiens, UniProt P24928); conditions: literature; cited from earlier work
RNA-polymerase II = RNA-polymerase II (Homo sapiens, UniProt P24928); conditions: cited from earlier work
Pol II = molecular target: T1, Pol II (Homo sapiens, UniProt P24928); experiment: In vitro transcription runoff assay using HeLaScribe nuclear extract; type: biochemical; conditions: for Transcription activity E (%): mean ± standard deviation
T1 construct: HeLaScribe® nuclear extract containing Pol II and all other transcription factors; purchased Promega; host or cells: HeLa nuclear extract (endogenous protein)
Excerpt: (h) In vitro transcription assay of synthetic amanitins containing analogs of Hyp: Primers were purchased from IDT via standard phosphoramidite chemistry. dNTP and rNTP were purchased from Thermofisher. GoTaq polymerase and HeLaScribe*Nuclear Extract in vitro Transcription System was purchased from Promega. Taq polymerase was purchased from NEB. [^32P] α-dGTP (3000 Ci/mmol 10 mCi/ml EasyTide) and [^32P] α-GTP (3000 Ci/mmol 10 mCi/ml EasyTide) were purchased from Perkin Elmer. QIAquick PCR purifcation kit was purchased from Qiagen. AcGFP1-N1 was a gift (Addgene plasmid #54705; http://n2t.net/addgene:54705; RRID:Addgene_54705). DNA Primer sequences were:
The DNA template for transcription runoff was synthesized by PCR with template pAcGFP-N1, and primers P1 and P2. To a final volume of 20 μL, 1 x GoTaq Buffer, 250 μM of each dNTP, 500 nM of each primers P1 and P2, […] pAcGFP-N1 and 0.05 U/μL GoTaq were employed to thermocycle for 30 cycles (30 s at 95° C., 30 s at 50° C. and 60 s at 72° C., Bio-Rad). A 1 μL aliquot of the amplified solution was resolved with 6×DNA loading dye in a 1% agarose gel containing […] and then visualized using GelDoc XR imager (Bio-Rad). Purification was completed via QIAquick PCR purification kit (Qiagen). The radioactive chromatographic standard was synthesized by PCR with template pAcGFP-N1, and primers P3 and P4. To a final volume of 50 μL, 1 x Thermopol Buffer, 200 μM of each dNTP, 500 nM of each primers P3 and P4, 10 pg/μL pAcGFP-N1 and 0.02 U/μL Vent polymerase, 1 μL [^32P] α-dGTP were employed to thermocycle for 30 cycles (30 s at 95° C., 30 s at 62° C. and 30 s at 72° C., Bio-Rad). A 1 μL aliquot of the amplified solution was resolved with 6×DNA loading dye in 8% denaturing PAGE and then visualized by autoradiography via the Typhoon 9200 imager (Molecular namics-Amersham-GE). Purification was completed via QIAquick PCR purification kit (Qiagen). The transcription runoff assay was modified from HeLaScribe® Nuclear Extract in vitro Transcription System (Promega). […]. The pellet was resolved by 8% denaturing PAGE and then visualized by autoradiography via the Typhoon 9200 imager (Molecular dynamics-Amersham-GE). Dosimetry was calculated by ImageJ, and the 3 parameter logistic fit was completed by Origin 2019 (OriginLab). […]
All data were presented in mean±standard deviation (n=3).

CHO cells [2] = experiment: Viability assay against CHO cells (MTT colorimetric assay); type: cell-based, Chinese hamster; conditions: for % viable cells: 72 h, replicates n = 1, 2, 3, listed as N3-Pro-amanitin (3)
Description: (§1) (f) Cell culture: Cells were cultured in Minimum Essential Medium Eagle—Alpha Modification (α-MEM) or […] Dulbecco's Modified Eagle Medium (DMEM), purchased from Gibco. […] All cell culture plastic ware was obtained from Coming or Falcon. Cells were cultured at 37° C. in a humidified chamber with 5% CO2. When used in cell culture, DMSO was purified by filtration through a […] filter. All experiments were carried out in a laminar flow culture cabinet, unless otherwise noted.
(§2) Immortalized CHO cells had been stored in liquid nitrogen. To revive cells, a 1-mL tube of the frozen cells in medium containing 10% DMSO was warmed in a 30° C. water bath and diluted with 9 mL of fresh media. Media contained 10% FBS and 100 U/mL penicillin and […] streptomycin, unless otherwise indicated. The cells were incubated in a T-25 flask at 37° C. at 5% CO2. After 24 hours, the medium was aspirated and replaced with fresh medium. When cells reached a level of 90-100% confluence, they were sub-cultured. […] Once the cells were detached from the tissue culture flask, 3-5 mL media was added to quench the trypsin and the mixture was transferred to a 10 mL centrifuge tube. The mixture was centrifuged for 5 min at […], and the supernatant was discarded. The cells were suspended in fresh medium, diluted as required, and transferred to a new culture flask.
(§3) To assay cell viability, a nearly confluent tissue culture flask was trypsinized, and the cells were counted following treatment with Trypan blue, using a hemocytometer. The cells were then diluted to the appropriate stock concentrations in fresh medium and transferred in 100 μL to a 96-well plate using a multi-channel pipette. The number of cells plated varied from experiment to experiment. These were incubated at 37° C. and 5% CO2 for a 24-hour period to allow for adherence. The medium was aspirated, and fresh medium was added, which contained the desired additives in DMSO. The cells were then re-incubated for 72 h. At the completion of the experiment, a 100 μL aliquot of 25 mg/mL MTT in phosphate-buffered saline (PBS) was added to each well. The plate was incubated three hours further to allow for the formation of the formazan product in viable cells. The media was carefully aspirated, and the purple product was solubilized in DMSO. […] Data was processed in Microsoft Excel and GraphPad Prism. Experiments were performed in triplicates unless otherwise noted, and the error bars were calculated as the standard error of the mean.
(§4) Each cell line was plated in a 96-well plate, with 100 μL of the stock solution per well (5000 cells per well) and incubated for 24 hours. […] The cells were incubated for 72 hours, at which point viability was assessed as described.

[3] = as above; type: cell-based, Chinese hamster; conditions: Chinese hamster, CHO cells, 72 h, replicates n = 1, 2, 3, read-out: % viable cells
Description: as §1, §2, §3, §4

[4] = Cell viability assay (BrdU incorporation) on HEK293-OATP1B3 cells; type: cell-based, human; conditions: human, HEK293-OATP1B3 cells; for viability at 96 h, 1 µM: highest used concentration of 1 μM
Description: (§5) . HEK293 and HEK-OATP1B3 cells were plated at 2.5×10^3 cells/well in a 1:1 mixture of Ham's F12 with DMEM containing 10% charcoal-stripped fetal calf serum (FCS) onto poly-D-lysine-coated 96-well plates and grown for 24 hours. Subsequently, cells were incubated with amanitin analogs at 8 different concentrations (1×10^−6 M to 1.28×10^−11 M, serial 1:5 dilutions). Following 96 h of drug exposure, cell viability was determined by a BrdU incorporation assay (Cell Proliferation ELISA, BrdU, Roche) and chemiluminescence was measured using a FLUOstar Optima plate reader (BMG LABtech). Data analysis was performed with GraphPad Prism 8 (GraphPad Software, Inc., La Jolla, CA) software to plot curve fits.

HEK293 cells = type: cell-based, human; conditions: wt-HEK293 cells lacking OATP1B3; 96 h
Description: as §5

CHO cells [5] = conditions: background statement, read-out: Ki (CHO cells readily killed); cited from earlier work
HEK293-OATP1B3 cells = experiment: Cell viability assay (BrdU incorporation) on HEK293-OATP1B3 cells; type: cell-based, human; conditions: HEK293-OATP1B3 vs HEK293
Description: as §5

Question: For amanullin, which Ki [1] is on record?
Answer: 10 to 40 nM

Question: For amanitin, which Kd (RNA-polymerase II) is on record?
Answer: 3 nM

Question: Which results are given for `CC[C@H](C)[C@@H]1NC(=O)CNC(=O)[C@@H]2Cc3c([nH]c4ccccc34)SC[C@H](NC(=O)CNC1=O)C(=O)N[C@@H](CC(N)=O)C(=O)N1C[C@H](N=[N+]=[N-])C[C@H]1C(=O)N[C@@H]([C@@H](C)[C@@H](O)CO)C(=O)N2` [Compound 3, N3-Pro-amanitin] (cyclo(CN[X2][Ile(4R-OH,5-OH)][Trp(2-yl)]GIG); thioether 1-5)?
Answer: IC50 (Pol II; IC50 (nM), Table 12, n = 3, high values estimated from activity at [I]=1.0 μM): > 1000 nM; inhibitory effects (Pol II; up to 1 μM concentrations): did not exhibit any noticeable inhibitory effects; % viable cells (CHO cells [2]; 1e-005 M): 100% and 94%; % viable cells (CHO cells [2]; 1.25e-006 M): 88% and 89%; % viable cells (CHO cells [2]; 1.56e-007 M): 89% and 88%; % viable cells (CHO cells [2]; 2.5e-006 M): 95% and 88%; % viable cells (CHO cells [2]; 3.125e-007 M): 89% and 91%; % viable cells (CHO cells [2]; 5e-006 M): 88% and 89%; % viable cells (CHO cells [2]; 6.25e-007 M): 93% and 87%; viability at 72 h, 1e-05 M ([3]; 1e-005 M): 107%; viability at 72 h, 1.25e-06 M ([3]; 1.25e-006 M): 105%; viability at 72 h, 1.56e-07 M ([3]; 1.56e-007 M): 101%; viability at 72 h, 2e-05 M ([3]; 2e-005 M): 112%; viability at 72 h, 2.5e-06 M ([3]; 2.5e-006 M): 104%; viability at 72 h, 3.125e-07 M ([3]; 3.125e-007 M): 99%; viability at 72 h, 5e-06 M ([3]; 5e-006 M): 104%; viability at 72 h, 6.25e-07 M ([3]; 6.25e-007 M): 101%; viability at 96 h, 1 µM ([4]; HEK293 cells overexpressing OATP1B3 (HEK293-OATP1B3)): 68%

Question: For proamanullin, which Ki [1] is on record?
Answer: 5000 to 20000 nM

Question: With “α-amanitin [Compound 1, reference compound]” as the compound, how does the “Transcription activity E (%)” value (Pol II; 1 nM) read?
Answer: 85.0 ± 2.4%

Question: What about the “Transcription activity E (%)” value (Pol II; 3 nM) of the same compound?
Answer: 69.5 ± 9.4%

Question: And the “Transcription activity E (%)” value (Pol II; 10 nM)?
Answer: 48.1 ± 9.8%

Question: And the “Transcription activity E (%)” value (Pol II; 30 nM)?
Answer: 22.9 ± 2.6%

Question: And the “Transcription activity E (%)” value (Pol II; 100 nM)?
Answer: 9.5 ± 4.1%

Question: What about the IC50 (CHO cells [2]; CHO cells, MTT assay, control) of the same compound?
Answer: 350 to 1100 nM

Question: What about the IC50 (HEK293 cells) of the same compound?
Answer: 130 ± 80 nM

Question: And the Ki (CHO cells [5])?
Answer: ~500 nM

Question: Which IC50 at 96 h ([4]; HEK293-OATP1B3 cells (OATP1B3 overexpressing HEK293), 96 h) does the source give for `CC[C@H](C)[C@@H]1NC(=O)CNC(=O)[C@@H]2Cc3c([nH]c4cc(O)ccc34)[S@+]([O-])C[C@H](NC(=O)CNC1=O)C(=O)N[C@@H](CC(=O)O)C(=O)N1C[C@H](O)C[C@H]1C(=O)N[C@@H]([C@@H](C)[C@@H](O)CO)C(=O)N2` [β-amanitin, reference compound] here?
Answer: 8.5 ± 1.1 nM

Question: What about the viability at 96 h, 1 µM ([4]; HEK293-OATP1B3 cells (OATP1B3 overexpressing HEK293)) of the same compound?
Answer: 0%

Question: And the “fold increase in toxicity / reduction of the IC50 value on HEK293-OATP1B3 relative to HEK293 cells” value (HEK293-OATP1B3 cells)?
Answer: 15 fold
